Columns and labels:
[1] = tested on: MCF-7 human breast cancer cell line; assay: MTT cytotoxicity assay; conditions: read-out: Cytotoxicity IC50, MCF-7; MTT method, 72 h (Table 5); NA = no activity
[2] = tested on: SPC-A1 lung cancer cell line; assay: CellTiter-Glo (CTG) cytotoxic assay; conditions: Homo sapiens, SPCA1, 72 h, read-out: Cytotoxicity IC50, SPC-A1
K562 cell line = assay: MTT cytotoxicity assay; conditions: read-out: Cytotoxicity IC50, K562; MTT method, 72 h (Table 5); NA = no activity
[3] = tested on: BXPC-3 human pancreatic cancer cell line; assay: SRB cytotoxicity assay; conditions: read-out: Cytotoxicity IC50, BXPC-3; SRB method, 72 h (Table 5)
[4] = tested on: U251 glioblastoma cell line; assay: CellTiter-Glo (CTG) cytotoxic assay; conditions: Homo sapiens, U-251, 72 h, read-out: Cytotoxicity IC50, U251
[5] = tested on: HCT-116 human colon carcinoma cell line; assay: CellTiter-Glo (CTG) cytotoxic assay; conditions: HCT-116, 72 h, read-out: Cytotoxicity IC50, HCT-116
[6] = tested on: A673 rhabdomyoma cell line; assay: CellTiter-Glo (CTG) cytotoxic assay; conditions: Homo sapiens, A673, 72 h, read-out: Cytotoxicity IC50, A673
[7] = tested on: MDA-MB-231 breast cancer cell line; assay: CellTiter-Glo (CTG) cytotoxic assay; conditions: Homo sapiens, MDA-MB-231, 72 h, read-out: Cytotoxicity IC50, MDA-MB-231
[8] = tested on: Hep3B liver cancer cell line; assay: CellTiter-Glo (CTG) cytotoxic assay; conditions: Homo sapiens, 72 h, read-out: Cytotoxicity IC50, Hep3B
[9] = CellTiter-Glo (CTG) cytotoxic assay, normal cells; conditions: human, HEK-293F cells
[10] = tested on: BT474 breast cancer cell line; assay: CellTiter-Glo (CTG) cytotoxic assay; conditions: Homo sapiens, BT-474, 72 h, read-out: Cytotoxicity IC50, BT474
[11] = CellTiter-Glo (CTG) cytotoxic assay, normal cells; conditions: human, L02 normal liver cells
[12] = tested on: 143B bone osteosarcoma cell line; assay: CellTiter-Glo (CTG) cytotoxic assay; conditions: Homo sapiens, 72 h, read-out: Cytotoxicity IC50, 143B
[13] = tested on: Karpass299 T cell lymphoma cell line; assay: CellTiter-Glo (CTG) cytotoxic assay; conditions: Homo sapiens, 72 h, read-out: Cytotoxicity IC50, Karpass299
[14] = tested on: N87 gastric carcinoma cell line; assay: CellTiter-Glo (CTG) cytotoxic assay; conditions: Homo sapiens, 72 h, read-out: Cytotoxicity IC50, N87
[15] = tested on: A549 lung cancer cell line; assay: CellTiter-Glo (CTG) cytotoxic assay; conditions: Homo sapiens, A549, 72 h, read-out: Cytotoxicity IC50, A549
[16] = tested on: H1975 lung cancer cell line; assay: CellTiter-Glo (CTG) cytotoxic assay; conditions: Homo sapiens, NCI-H1975, 72 h, read-out: Cytotoxicity IC50, H1975
[17] = tested on: HUCCT1 ductal carcinoma cell line; assay: CellTiter-Glo (CTG) cytotoxic assay; conditions: Homo sapiens, HuCCT-1, 72 h, read-out: Cytotoxicity IC50, HUCCT1
[18] = tested on: H1299 lung cancer cell line; assay: CellTiter-Glo (CTG) cytotoxic assay; conditions: Homo sapiens, NCI-H1299, 72 h, read-out: Cytotoxicity IC50, H1299
HL-60 leukemia cell line = assay: CellTiter-Glo (CTG) cytotoxic assay; conditions: Homo sapiens, HL-60, 72 h, read-out: Cytotoxicity IC50, HL60
[19] = tested on: HCC1954 ductal carcinoma cell line; assay: CellTiter-Glo (CTG) cytotoxic assay; conditions: Homo sapiens, HCC1954, 72 h, read-out: Cytotoxicity IC50, HCC1954
[20] = tested on: U87 glioblastoma cell line; assay: CellTiter-Glo (CTG) cytotoxic assay; conditions: Homo sapiens, 72 h, read-out: Cytotoxicity IC50, U87
[21] = tested on: MDA-MB-468 breast cancer cell line; assay: CellTiter-Glo (CTG) cytotoxic assay; conditions: Homo sapiens, MDA-MB-468, 72 h, read-out: Cytotoxicity IC50, MDA-MB-468
[22] = tested on: MKN-45 gastric cancer cell line; assay: CellTiter-Glo (CTG) cytotoxic assay; conditions: Homo sapiens, MKN-45, 72 h, read-out: Cytotoxicity IC50, MKN-45
[23] = tested on: A431 epidermoid carcinoma cell line; assay: CellTiter-Glo (CTG) cytotoxic assay; conditions: Homo sapiens, A-431, 72 h, read-out: Cytotoxicity IC50, A431
[24] = tested on: DU145 prostate cancer cell line; assay: CellTiter-Glo (CTG) cytotoxic assay; conditions: Homo sapiens, DU-145, 72 h, read-out: Cytotoxicity IC50, DU145
[25] = tested on: HT-29 human colorectal cancer cell line; assay: SRB cytotoxicity assay; conditions: read-out: Cytotoxicity IC50, HT-29; SRB method, 72 h (Table 5)
[26] = tested on: B16F10 highly metastatic mouse melanoma cell line; assay: CellTiter-Glo (CTG) cytotoxic assay; conditions: B16-F10, 72 h, read-out: Cytotoxicity IC50, B16F10
[27] = tested on: MV-4-11 leukemia cell line; assay: CellTiter-Glo (CTG) cytotoxic assay; conditions: Homo sapiens, MV4-11, 72 h, read-out: Cytotoxicity IC50, MV-4-11
Jurkat cell line = assay: MTT cytotoxicity assay; conditions: read-out: Cytotoxicity IC50, Jurkat; MTT method, 72 h (Table 5)
[28] = tested on: H2228 lung cancer cell line; assay: CellTiter-Glo (CTG) cytotoxic assay; conditions: Homo sapiens, NCI-H2228, 72 h, read-out: Cytotoxicity IC50, H2228
K562 leukemia cell line = assay: CellTiter-Glo (CTG) cytotoxic assay; conditions: Homo sapiens, K562, 72 h, read-out: Cytotoxicity IC50, K562
[29] = tested on: P6C human colorectal cancer cell line; assay: MTT cytotoxicity assay; conditions: read-out: Cytotoxicity IC50, P6C; MTT method, 72 h (Table 5)
[30] = tested on: HCT-116 human colorectal cancer cell line; assay: SRB cytotoxicity assay; conditions: read-out: Cytotoxicity IC50, HCT-116; SRB method, 72 h (Table 5); NA = no activity
[31] = tested on: MCF-7 breast cancer cell line; assay: CellTiter-Glo (CTG) cytotoxic assay; conditions: Homo sapiens, MCF7, 72 h, read-out: Cytotoxicity IC50, MCF-7
cancer cells = assay: Cytotoxicity (MTT, SRB, CTG), summary over all cancer cells; conditions: read-out: IC50 values against cancer cells, range
26 cancer cell lines = assay: CTG cytotoxic assay, summary over the panel; conditions: read-out: IC50 values against 26 cancer cell lines, range
[32] = tested on: other 26 cell lines (Table 4 without N87); assay: CTG cytotoxic assay, summary over the other cell lines of Table 4; conditions: read-out: IC50 against other 26 cell lines
[33] = tested on: HCT-116, HT-29, P6C and BXPC-3 cell lines; assay: SRB/MTT cytotoxicity assays, summary over CRC and pancreatic lines; conditions: Homo sapiens, read-out: IC50 values against HCT-116, HT-29, P6C and BXPC-3, range

SMILES	IC50 [1]	IC50 [2]	IC50 (K562 cell line)	IC50 [3]	IC50 [4]	IC50 [5]	IC50 [6]	IC50 [7]	IC50 [8]	IC50 at 72 h [9]	IC50 [10]	IC50 at 72 h [11]	IC50 [12]	IC50 [13]	IC50 [14]	IC50 [15]	IC50 [16]	IC50 [17]	IC50 [30]	IC50 (cancer cells)	other results
COc1cc(-c2ccccn2)nc([C@@H]2NC(=O)c3ccccc3N2)c1SC [S(+)-14, S-Pyrisulfoxin F]	10.4 µM	–	–	–	–	–	–	–	–	–	–	–	–	–	–	–	–	–	–	–	–
COc1cccc2c1C(=O)c1c(O)c3c(c(O)c1C2=O)C[C@@](O)(C(=O)CO)C[C@@H]3O[C@H]1C[C@H](N)[C@H](O)[C@H](C)O1 [Adriamycin, reference compound]	0.86 µM	0.19 µM	0.25 µM	32 nM	190 nM	100 nM	0.13 µM	180 nM	17.6 µM	0.05 µM	1.94 µM	0.096 µM	0.095 µM	390 nM	0.12 µM	99 nM	91 nM	0.051 µM	210 nM	–	IC50 [18]: 0.49 µM; IC50 (HL-60 leukemia cell line): 210 nM; IC50 [19]: 48 nM; IC50 [20]: 120 nM; IC50 [21]: > 100000 nM; IC50 [22]: 190 nM; IC50 [23]: 170 nM; IC50 [24]: 48 nM; IC50 [25]: 160 nM; IC50 [26]: 0.015 µM; IC50 [27]: 0.16 µM; IC50 (Jurkat cell line): 440 nM; IC50 [28]: 0.097 µM; IC50 (K562 leukemia cell line): 18 nM; IC50 [29]: 650 nM; IC50 [31]: 100 nM
CC(=O)NCc1nc(-c2ccccn2)cc(O)c1[S+](C)[O-] (racemic) [(±)-2, N-[(4-hydroxy-5-methylsulfinyl-2,2′-bipyridin-6-yl)methyl] acetamide]	–	7.83 µM	–	–	4790 nM	2450 nM	6.9 µM	920 nM	4.42 µM	> 100 µM	8.24 µM	> 100 µM	8.39 µM	3130 nM	7.46 µM	4180 nM	2550 nM	7.91 µM	–	0.048 to 9.71 µM	IC50 [18]: 7.38 µM; IC50 (HL-60 leukemia cell line): 3180 nM; IC50 [19]: 2140 nM; IC50 [20]: 3670 nM; IC50 [21]: 1310 nM; IC50 [22]: 4880 nM; IC50 [23]: 4630 nM; IC50 [24]: 4510 nM; IC50 [26]: 7.74 µM; IC50 [27]: 9.71 µM; IC50 [28]: 8.05 µM; IC50 (26 cancer cell lines): 0.92 to 9.71 µM; IC50 (K562 leukemia cell line): 5920 nM; IC50 [31]: 5780 nM
COc1cc(-c2ccccn2)nc(CO)c1[S+](C)[O-] (stereo not shown) [compound 1, 4-methoxy-5-methylsulfinyl-2,2′-bipyridine-6-methanol]	–	–	–	–	–	–	–	–	–	> 100 µM	–	> 100 µM	–	–	8.09 µM	–	–	–	–	0.048 to 9.71 µM	IC50 [32]: > 100 µM
COc1cc(-c2ccccn2)nc(/C=N/O)c1[S+](C)[O-] (racemic) [(±)-3, pyrisulfoxin A]	–	–	13 µM	1600 nM	–	–	–	–	–	–	–	–	–	–	–	–	–	–	730 nM	0.048 to 9.71 µM	IC50 [33]: 48 to 3200 nM; IC50 [25]: 830 nM; IC50 [29]: 3200 nM
COc1cc(-c2ccccn2)nc([C@H]2NC(=O)c3ccccc3N2)c1SC [R(–)-14, R-Pyrisulfoxin F]	–	–	–	–	–	–	–	–	–	–	–	–	–	–	–	–	–	–	14700 nM	–	–

From publication PMC7218127, “Cytotoxic and Optically Active Pyrisulfoxins From the Endophytic Streptomyces albolongus EA12432” (Frontiers in Chemistry, 2020)
